The values below come from patent publication US5567805A, “The cellular receptor for the CS3 peptide of human immunodeficiency virus” (priority 1994, dated 1996).

For one experiment, the system named is CS3 binding domain. Description: CS3 binding on RH9 cells stimulated with anti-CD3 or TPA. Type of experiment: cell-based, human. Here is the method: (§1) FIG. 11. Cultures of RH9 cells were incubated with 10 ng/ml PMA (TPA) or 10 μg/ml antibody to the CD3 cell surface antigen or in medium alone. Comparisons are presented for each day of analysis for expression of CD4 (left panel) or CS3 binding (right panel). 0.50% of RH9 cells bound CS3-HSA-FITC. Relative to control cultures treatment with anti-CD3 increased CS3 domain expressing cells by 71% at 48 hours and 56% at 72 hours, while TPA increased CS3-binding by 32% at 72 hours. CS3-HSA-FITC fluorescence intensity, reflecting the number of receptors per cell, increased while CD4 expression decreased in intensity and number of positive cells (8% at 24 hours).

For the next experiment, the system named is CD4. Description: CD4 expression on RH9 cells stimulated with TPA. The class given is cell-based, human. Here is the method:
as §1

In the case of `CCCCCCCCCCCCCC(=O)O[C@@H]1[C@@H](C)[C@@]2(O)[C@@H](C=C(CO)C[C@]3(O)C(=O)C(C)=C[C@@H]23)[C@@H]2C(C)(C)[C@]12OC(C)=O` [TPA, tetraphorbol 13-myristyl acetate], the “CS3 binding / receptor density after stimulation” value in the experiment with CS3 binding domain is “CS3 binding was increased”. Further, the “increase in CS3 domain expressing cells / CS3-binding relative to control cultures” value with CS3 binding domain (72 hours) stood at 32%. For the same compound, the “CD4 expression after treatment” value with CD4 is “lost”.
